Assay results reported in US10294202B2, “Pyrrolidinones as herbicides” (FMC Corporation, priority 2013, dated 2019).

Tests used:
Test in all cases: Test D pre-/postemergence herbicide test
chamomile = type: in vivo, Matricaria inodora; conditions: for Plant response rating: Chamomile, scale 0 to 100; for Plant response rating, Chamomile: scale 0 to 100 (0 no effect, 100 complete control)
Method in brief: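 Dual-timing greenhouse test: preemergence application to seeds in silt loam soil, postemergence application to 1- to 4-leaf plants in peat-based medium. Chemicals were formulated with surfactant in non-phytotoxic solvent. Control was rated visually 0–100 relative to untreated plants after 7 to 21 days.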

oat, wild = type: in vivo, Avena fatua; conditions: for Plant response rating: Postemergence, Oat, Wild, scale 0 to 100; for Plant response rating, Oat, Wild: Preemergence, scale 0 to 100 (0 no effect, 100 complete control)
Excerpt: (§1) Seeds of plant species selected from bluegrass (annual bluegrass, Poa annua), blackgrass (Alopecurus myosuroides), canarygrass (littleseed canarygrass, Phalaris minor), chickweed (common chickweed, Stellaria media), galium (catchweed bedstraw, Galium aparine), bromegrass, downy (downy bromegrass, Bromus tectorum), field poppy (Papaver rhoeas), field violet (Viola arvensis), foxtail, green (green foxtail, Setaria viridis), deadnettle (henbit deadnettle, Lamium amplexicaule), ryegrass, Italian (Italian ryegrass, Lolium multiflorum), kochia (Kochia scoparia), lambsquarters (Chenopodium album), oilseed rape (Brassica napus), pigweed (Amaranthus retroflexus), chamomile (scentless chamomile, Matricaria inodora), Russian thistle (Salsola kali), speedwell (bird's-eye speedwell, Veronica persica), barley, spring (spring barley, Hordeum vulgare), wheat, spring (spring wheat, Triticum aestivum), buckwheat, wild (wild buckwheat, Polygonum convolvulus), mustard, wild (wild mustard, Sinapis arvensis), oat, wild (wild oat, Avena fatua), radish, wild (wild radish, Raphanus raphanistrum), […]), barley, winter (winter barley, Hordeum vulgare), and wheat, winter (winter wheat, Triticum aestivum) were planted into a silt loam soil and treated preemergence with test chemicals formulated in a non-phytotoxic solvent mixture which included a surfactant. At the same time, these species were planted in pots containing Redi-Earth® planting medium (Scotts Company, 14111 Scottslawn Road, Marysville, Ohio 43041) comprising spaghnum peat moss, vermiculite, wetting agent and starter nutrients and treated with postemergence applications of the test chemicals formulated in the same manner. Plants ranged in height from 2 to 18 cm (1- to 4-leaf stage). Treated plants and controls were maintained in a controlled growth environment for 7 to 21 days after which time all species were compared to controls and visually evaluated. Plant response ratings, summarized in Table D, are based on a scale of 0 to 100 where 0 is no effect and 100 is complete control. A dash (-) response means no test result.

lambsquarters = type: in vivo, Chenopodium album; conditions: for Plant response rating: Lambsquarters, scale 0 to 100; for Plant response rating, Lambsquarters: scale 0 to 100 (0 no effect, 100 complete control)
Excerpt: as §1

bromegrass, downy = type: in vivo, Bromus tectorum; conditions: for Plant response rating: Bromegrass, Downy, scale 0 to 100; for Plant response rating, Bromegrass, Downy: scale 0 to 100 (0 no effect, 100 complete control)
Excerpt: as §1

buckwheat, wild = type: in vivo, Polygonum convolvulus; conditions: for Plant response rating: Buckwheat, Wild, scale 0 to 100; for Plant response rating, Buckwheat, Wild: scale 0 to 100 (0 no effect, 100 complete control)
Excerpt: as §1

chickweed = type: in vivo, Stellaria media; conditions: for Plant response rating: Chickweed, scale 0 to 100; for Plant response rating, Chickweed: scale 0 to 100 (0 no effect, 100 complete control)
Excerpt: as §1

O=C1NCC(c2ccc(Cl)c(F)c2)C1C(=O)Nc1cccc(F)c1F (stereo not shown) [Compound 52]
Plant response rating (chamomile; Postemergence, 16 g ai/ha): 0
Plant response rating (chamomile; Postemergence, 31 g ai/ha): 0
Plant response rating (chamomile; Postemergence, 62 g ai/ha): 0
Plant response rating (chamomile; Postemergence, 125 g ai/ha): 20
Plant response rating (chamomile; Postemergence, 250 g ai/ha): 20
Plant response rating, Chamomile (chamomile; Preemergence, 62 g ai/ha): 75
Plant response rating, Chamomile (chamomile; Preemergence, 16 g ai/ha): 20
Plant response rating, Chamomile (chamomile; Preemergence, 31 g ai/ha): 20
Plant response rating (chamomile; Preemergence, 125 g ai/ha): 75
Plant response rating (chamomile; Preemergence, 250 g ai/ha): 80
Plant response rating (oat, wild; 16 g ai/ha): 0
Plant response rating (oat, wild; 31 g ai/ha): 0
Plant response rating (oat, wild; 62 g ai/ha): 0
Plant response rating (oat, wild; 125 g ai/ha): 0
Plant response rating (oat, wild; 250 g ai/ha): 0
Plant response rating, Oat, Wild (oat, wild; 62 g ai/ha): 0
Plant response rating, Oat, Wild (oat, wild; 125 g ai/ha): 0
Plant response rating, Oat, Wild (oat, wild; 16 g ai/ha): 0
Plant response rating, Oat, Wild (oat, wild; 31 g ai/ha): 0
Plant response rating, Oat, Wild (oat, wild; 250 g ai/ha): 0
Plant response rating (lambsquarters; Postemergence, 16 g ai/ha): 0
Plant response rating (lambsquarters; Postemergence, 31 g ai/ha): 0
Plant response rating (lambsquarters; Postemergence, 62 g ai/ha): 0
Plant response rating (lambsquarters; Postemergence, 125 g ai/ha): 30
Plant response rating (lambsquarters; Postemergence, 250 g ai/ha): 30
Plant response rating, Lambsquarters (lambsquarters; Preemergence, 62 g ai/ha): 0
Plant response rating, Lambsquarters (lambsquarters; Preemergence, 16 g ai/ha): 0
Plant response rating, Lambsquarters (lambsquarters; Preemergence, 31 g ai/ha): 0
Plant response rating (lambsquarters; Preemergence, 125 g ai/ha): 20
Plant response rating (lambsquarters; Preemergence, 250 g ai/ha): 20
Plant response rating (bromegrass, downy; Postemergence, 16 g ai/ha): 0
Plant response rating (bromegrass, downy; Postemergence, 31 g ai/ha): 0
Plant response rating (bromegrass, downy; Postemergence, 62 g ai/ha): 0
Plant response rating (bromegrass, downy; Postemergence, 125 g ai/ha): 0
Plant response rating (bromegrass, downy; Postemergence, 250 g ai/ha): 0
Plant response rating, Bromegrass, Downy (bromegrass, downy; Preemergence, 62 g ai/ha): 0
Plant response rating, Bromegrass, Downy (bromegrass, downy; Preemergence, 16 g ai/ha): 0
Plant response rating, Bromegrass, Downy (bromegrass, downy; Preemergence, 31 g ai/ha): 0
Plant response rating (bromegrass, downy; Preemergence, 125 g ai/ha): 0
Plant response rating (bromegrass, downy; Preemergence, 250 g ai/ha): 0
Plant response rating (buckwheat, wild; Postemergence, 16 g ai/ha): 0
Plant response rating (buckwheat, wild; Postemergence, 31 g ai/ha): 0
Plant response rating (buckwheat, wild; Postemergence, 62 g ai/ha): 0
Plant response rating (buckwheat, wild; Postemergence, 125 g ai/ha): 0
Plant response rating (buckwheat, wild; Postemergence, 250 g ai/ha): 0
Plant response rating, Buckwheat, Wild (buckwheat, wild; Preemergence, 62 g ai/ha): 0
Plant response rating, Buckwheat, Wild (buckwheat, wild; Preemergence, 16 g ai/ha): 0
Plant response rating, Buckwheat, Wild (buckwheat, wild; Preemergence, 31 g ai/ha): 0
Plant response rating (buckwheat, wild; Preemergence, 125 g ai/ha): 10
Plant response rating (buckwheat, wild; Preemergence, 250 g ai/ha): 10
Plant response rating (chickweed; Postemergence, 16 g ai/ha): 0
Plant response rating (chickweed; Postemergence, 31 g ai/ha): 0
Plant response rating (chickweed; Postemergence, 62 g ai/ha): 10
Plant response rating (chickweed; Postemergence, 125 g ai/ha): 15
Plant response rating (chickweed; Postemergence, 250 g ai/ha): 25

O=C1NCC(c2ccc(C(F)(F)F)cc2)C1C(=O)Nc1ccccc1F (stereo not shown) [Compound 231]
Plant response rating (chamomile; Postemergence, 31 g ai/ha): 20
Plant response rating (chamomile; Postemergence, 62 g ai/ha): 25
Plant response rating (chamomile; Postemergence, 125 g ai/ha): 50
Plant response rating (chamomile; Postemergence, 250 g ai/ha): 50
Plant response rating, Chamomile (chamomile; Preemergence, 62 g ai/ha): 75
Plant response rating, Chamomile (chamomile; Preemergence, 125 g ai/ha): 80
Plant response rating, Chamomile (chamomile; Preemergence, 31 g ai/ha): 75
Plant response rating (chamomile; Preemergence, 250 g ai/ha): 100
Plant response rating (oat, wild; 31 g ai/ha): 5
Plant response rating (oat, wild; 62 g ai/ha): 10
Plant response rating (oat, wild; 125 g ai/ha): 10
Plant response rating (oat, wild; 250 g ai/ha): 10
Plant response rating, Oat, Wild (oat, wild; 62 g ai/ha): 20
Plant response rating, Oat, Wild (oat, wild; 125 g ai/ha): 25
Plant response rating, Oat, Wild (oat, wild; 31 g ai/ha): 20
Plant response rating, Oat, Wild (oat, wild; 250 g ai/ha): 30
Plant response rating (lambsquarters; Postemergence, 31 g ai/ha): 55
Plant response rating (lambsquarters; Postemergence, 62 g ai/ha): 50
Plant response rating (lambsquarters; Postemergence, 125 g ai/ha): 70
Plant response rating (lambsquarters; Postemergence, 250 g ai/ha): 75
Plant response rating, Lambsquarters (lambsquarters; Preemergence, 62 g ai/ha): 80
Plant response rating, Lambsquarters (lambsquarters; Preemergence, 125 g ai/ha): 90
Plant response rating, Lambsquarters (lambsquarters; Preemergence, 31 g ai/ha): 45
Plant response rating (lambsquarters; Preemergence, 250 g ai/ha): 90
Plant response rating (bromegrass, downy; Postemergence, 31 g ai/ha): 15
Plant response rating (bromegrass, downy; Postemergence, 62 g ai/ha): 20
Plant response rating (bromegrass, downy; Postemergence, 125 g ai/ha): 25
Plant response rating (bromegrass, downy; Postemergence, 250 g ai/ha): 25
Plant response rating, Bromegrass, Downy (bromegrass, downy; Preemergence, 62 g ai/ha): 0
Plant response rating, Bromegrass, Downy (bromegrass, downy; Preemergence, 125 g ai/ha): 0
Plant response rating, Bromegrass, Downy (bromegrass, downy; Preemergence, 31 g ai/ha): 0
Plant response rating (bromegrass, downy; Preemergence, 250 g ai/ha): 15
Plant response rating (buckwheat, wild; Postemergence, 31 g ai/ha): 0
Plant response rating (buckwheat, wild; Postemergence, 62 g ai/ha): 0
Plant response rating (buckwheat, wild; Postemergence, 125 g ai/ha): 0
Plant response rating (buckwheat, wild; Postemergence, 250 g ai/ha): 0
Plant response rating, Buckwheat, Wild (buckwheat, wild; Preemergence, 62 g ai/ha): 0
Plant response rating, Buckwheat, Wild (buckwheat, wild; Preemergence, 125 g ai/ha): 0
Plant response rating, Buckwheat, Wild (buckwheat, wild; Preemergence, 31 g ai/ha): 0
Plant response rating (buckwheat, wild; Preemergence, 250 g ai/ha): 10
Plant response rating (chickweed; Postemergence, 31 g ai/ha): 25
Plant response rating (chickweed; Postemergence, 62 g ai/ha): 80
Plant response rating (chickweed; Postemergence, 125 g ai/ha): 80
Plant response rating (chickweed; Postemergence, 250 g ai/ha): 80
Plant response rating, Chickweed (chickweed; Preemergence, 62 g ai/ha): 85
Plant response rating, Chickweed (chickweed; Preemergence, 125 g ai/ha): 95
Plant response rating, Chickweed (chickweed; Preemergence, 31 g ai/ha): 75
Plant response rating (chickweed; Preemergence, 250 g ai/ha): 90
